# Literature values as cited in patent US9592699B2, “Dampening fluid for digital lithographic printing” (Xerox Corporation, priority 2011, dated 2017).
# Assays:
# [1] = not given; remark: listed apart in the source
# [2] = not given; remark: listed apart in the source
# [3] = not given; remark: listed apart in the source
# [4] = not given; remark: listed apart in the source
Compound,Vapor Pressure at 25° C. [mmHg],Kinematic Viscosity at 25° C. [1] [cSt],Surface Tension at 25° C. [2] [dynes/cm],Heat of Vaporization at boiling point [3] [kJ/kg],Solubility in Water [4] [ppm],kinematic viscosity ([1]; 1 mm^2/sec),surface tension [2]
"C[Si]1(C)O[Si](C)(C)O[Si](C)(C)O[Si](C)(C)O1 [(III-a), octamethylcyclotetrasiloxane]",1.5,2.3,18.4,133,,,
"CC(OC(F)(F)C(F)C(F)(F)F)C(F)(F)C(F)C(F)(F)F (centres unmarked) [(I-c), 1,1,1,2,3,3-Hexafluoro-4-(1,1,2,3,3,3-hexafluoropropoxy)pentane]",,1.07,17.7,115.6,<10,,
"C[Si](C)(C)O[Si](C)(O[Si](C)(C)C)O[Si](C)(C)C [(IV-a), methyltris(trimethylsiloxy)silane]",<10,1.5,16.8,,,,
"C[Si](C)(C)O[Si](C)(C)C [(II-a), hexamethyldisiloxane]",35,0.65,15.9,200.8,,,
"O [Water, reference compound]",,1,72,,,about 1 centiStoke,around 70 dynes/cm
"COC(F)(C(F)(F)C(F)(F)F)C(F)(C(F)(F)F)C(F)(F)F (centres unmarked) [(I-a), 1,1,1,2,2,3,4,5,5,5-decafluoro-3-methoxy-4-(trifluoromethyl)pentane]",44.9,0.71,15,101.7,,,
"COC(F)(F)C(F)(F)C(F)(F)F [(I-f), 1-methoxyheptafluoropropane]",484.5,0.32,12.4,142,,,
"C[Si](C)(C)O[Si](C)(C)O[Si](C)(C)C [(II-b), octamethyltrisiloxane]",4,1,17.4,158,,,
"CCOC(F)(C(F)(F)C(F)(F)C(F)(F)F)C(F)(C(F)(F)F)C(F)(F)F (centres unmarked) [(I-b), 3-ethoxy-1,1,1,2,3,4,4,5,5,6,6,6-dodecafluoro-2-(trifluoromethyl)hexane]",,0.77,16.2,88.5,,,
"C[Si]1(C)O[Si](C)(C)O[Si](C)(C)O[Si](C)(C)O[Si](C)(C)O1 [(III-b), decamethylcyclopentasiloxane]",1,3.9,18.0,157,,,
